In one assay the target is T1, StOASS-B (Salmonella typhimurium, UniProt P29848).
T1 construct: His-tag (with TEV site) (cleaved yes); made in house; host or cells: E. coli Rosetta (DE3)
T1 sequence (P29848 1-303): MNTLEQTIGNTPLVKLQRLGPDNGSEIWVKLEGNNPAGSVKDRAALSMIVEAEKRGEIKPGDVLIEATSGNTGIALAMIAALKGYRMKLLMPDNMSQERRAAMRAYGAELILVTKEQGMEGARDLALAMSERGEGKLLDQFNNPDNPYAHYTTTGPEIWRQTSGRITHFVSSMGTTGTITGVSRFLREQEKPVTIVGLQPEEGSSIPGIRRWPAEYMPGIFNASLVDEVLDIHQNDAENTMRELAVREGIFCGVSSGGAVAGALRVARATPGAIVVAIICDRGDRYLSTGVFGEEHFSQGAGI
The assay is described as follows: Fluorescence binding assay on purified recombinant StOASS-B. How it is done:
(§1) The affinity of the compounds for StOASS-A and StOASS-B was determined on the purified recombinant proteins by an in vitro fluorescence binding assay. Measurements were carried out at 20 °C in a 3 mm pathlength quartz microcuvette in 100 mM HEPES, 5% DMSO (Applichem, Darmstadt, Germany), pH 7.0, using a Fluoromax-4 (Horiba Jobin-Yvon, Kyoto, Japan) spectrofluorometer. Emission spectra of solutions containing 0.2–1.0 μM StOASS, upon excitation of the pyridoxal 5′-phosphate cofactor at 412 nm, in the presence of increasing concentrations of compounds were collected; fluorescence intensities at 500 nm were plotted to compound concentration and data were fitted to a binding isotherm: I=I0+ΔI·compound/KD+compound where I is the fluorescence emission intensity at 500 nm in the presence of a given concentration of compound, I0 is the initial fluorescence emission in the absence of ligands, ΔI is the amplitude of the fluorescence emission change and KD is the dissociation constant. When the KD was lower than the protein concentration, data were fitted to the quadratic equation: I=I0+ΔI·OASS+compound+KD−OASS+compound+KD^2−4·OASS·compound/2
(§2) Data were collected in duplicate.
(§3) Esters were tested up to a concentration of 100 μM and no binding was observed.

Another assay addresses T2, StOASS-A (Salmonella typhimurium, UniProt P0A1E3).
T2 construct: His-tag (with TEV site) (cleaved yes); made in house; host or cells: E. coli Rosetta (DE3)
As to the kind of experiment: Fluorescence binding assay on purified recombinant StOASS-A. The arrangement: species or system S. Typhimurium. How it is done: as §1, §2, §3

A further assay concerns S. Typhimurium ATCC14028. As to the kind of experiment: MIC by broth microdilution, S. Typhimurium. The assay is classed as cell-based, Salmonella enterica serovar Typhimurium. The settings on record: Salmonella enterica; compound alone, MHB, 24 h at 37 °C; read-out: MIC (μg/mL) S. Typhimurium ATCC14028. The method, then: (§4) MIC values were evaluated following CLSI guidelines with some modifications, as referred to in previous work. Twofold dilutions 25.6–0.05 mg/mL of the tested compounds were performed in DMSO in separate 96-well microtiter U-plates (Greiner, Milan, Italy). In a different 96-well microtiter U-plate, for each well of the replicates, 49 µL of broth medium were added. Then, in each well of the plate, one microliter of each compound at variable dilution in DMSO was added. For each test, three independent experiments with three replicates each were performed. Tested reference bacterial strains (E. coli ATCC25922; S. Typhimurium ATCC14028; K. pneumoniae ATCC13883) were brought to the logarithmic phase of growth in MHB medium by incubation at 37 °C for 24 h. After incubation, bacterial suspensions were centrifuged (2000 rpm, 4 °C for 20 min), and then the pellets were resuspended in 100 mM phosphate buffer, pH 7.0, to reach a final bacterial concentration of 10^8 CFU/mL, adjusted by spectrophotometry (OD620nm ranged between 0.08–0.13). The obtained suspensions were further diluted 1:100 in broth medium to reach a bacterial concentration of 10^6 CFU/mL. Fifty µL of the bacterial suspension containing 10^6 CFU/mL were inoculated into each well within 30 min, to obtain a final concentration of 5 × 10^5 CFU/mL in a total volume of 100 µL. The final dilution range tested was 256–0.5 µg/mL. Growth and sterility controls were performed for each strain and for each tested compound. Plates were then incubated for 24 h at 37 °C in a static aerobic atmosphere. After incubation, plates were read by unaided eye with a microtiter reading mirror and then the OD of each well of the plates was measured spectrophotometrically at 620 nm. MIC values were calculated as the arithmetic mean ± standard deviation (SD) of the unaided eye reading and the inhibition of growth for each tested dilution was calculated from the OD values (mean ± SD). A quality control microorganism (E. coli ATCC 25922) was tested periodically to validate the accuracy of the procedure.
(In general: In broth dilution the organism is exposed to a series of concentrations in liquid medium.)

The test system of another assay is E. coli ATCC 25922. As to the kind of experiment: MIC by broth microdilution, E. coli. The assay is classed as cell-based, Escherichia coli. The following applies: Escherichia coli, ATCC25922; compound alone, MHB, 24 h at 37 °C; read-out: MIC (μg/mL) E.coli ATCC 25922. How it is done:
as §4

Another assay concerns K. pneumoniae ATCC13883. As to the kind of experiment: MIC by broth microdilution, K. pneumoniae. Type of assay: cell-based, Klebsiella pneumoniae. The settings on record: Klebsiella pneumoniae, ATCC13883; compound alone, MHB, 24 h at 37 °C; read-out: MIC (μg/mL) K. pneumoniae ATCC13883. The method, then:
as §4

[1] abbreviates: 20 °C, 100 mM HEPES, 5% DMSO, pH 7.0, racemic mixture, esters tested up to 100 μM, read-out: KD (μM) OASS-A.
Where [2] appears, read: 20 °C, 100 mM HEPES, 5% DMSO, pH 7.0, racemic mixture, esters tested up to 100 μM.

These results are taken from article PMC9227781, “Inhibitors of O-Acetylserine Sulfhydrylase with a Cyclopropane-Carboxylic Acid Scaffold Are Effective Colistin Adjuvants in Gram Negative Bacteria” (Pharmaceuticals, 2022).

Read-outs that look alike come from different tables or passages of the source.

T2 sequence (P0A1E3 whole entry): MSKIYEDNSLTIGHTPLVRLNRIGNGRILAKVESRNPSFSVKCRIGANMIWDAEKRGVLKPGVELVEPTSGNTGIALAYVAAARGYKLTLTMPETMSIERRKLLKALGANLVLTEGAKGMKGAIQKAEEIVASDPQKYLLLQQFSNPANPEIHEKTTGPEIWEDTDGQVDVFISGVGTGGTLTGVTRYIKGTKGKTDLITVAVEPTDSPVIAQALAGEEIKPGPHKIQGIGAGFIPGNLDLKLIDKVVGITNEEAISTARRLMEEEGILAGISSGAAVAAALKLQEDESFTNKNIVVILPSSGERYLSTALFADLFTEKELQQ

With `Cc1ccc(C[C@@]2(C(=O)O)C[C@H]2c2cccc(-c3cn[nH]c3)c2)cc1` (relative stereo) [Compound 9c, trans-2-(3-(1H-pyrazol-4-yl)phenyl)-1-(4-methylbenzyl)cyclopropanecarboxylic acid], the Kd on StOASS-B was 3.05 ± 0.18 µM; at StOASS-A (setting [1]) it was 1.01 ± 0.38 µM. Also, the MIC in the assay on S. Typhimurium ATCC14028, in the assay on E. coli ATCC 25922 and in the assay on K. pneumoniae ATCC13883 was over 512 µg/mL each time.

`Cc1ccc(C[C@@]2(C(=O)O)C[C@H]2c2cccc(-c3c[nH]nc3C)c2)cc1` (relative stereo) [Compound 9b, trans-2-(3-(3-methyl-1H-pyrazol-4-yl)phenyl)-1-(4-methylbenzyl)cyclopropanecarboxylic acid]: the Kd at StOASS-B turned out to be 2.63 ± 0.04 µM; at StOASS-A (setting [1]) it was 1.86 ± 0.76 µM. Moreover, the MIC with S. Typhimurium ATCC14028, in the assay on E. coli ATCC 25922 and in the assay with K. pneumoniae ATCC13883 was over 512 µg/mL in each case.

As for `Cc1ccc(C[C@@]2(C(=O)O)C[C@H]2c2cccc(-c3cnc(N)nc3)c2)cc1` (relative stereo) [Compound 9a, trans-2-(3-(2-aminopyrimidin-5-yl)phenyl)-1-(4-methylbenzyl)cyclopropanecarboxylic acid], the dissociation constant Kd was found to be 1.29 ± 0.09 µM at StOASS-B and 0.57 ± 0.16 µM at StOASS-A (setting [1]). In addition, the MIC in the assay on S. Typhimurium ATCC14028, in the assay with E. coli ATCC 25922 and with K. pneumoniae ATCC13883 was over 512 µg/mL throughout.

For `Cc1ccc(C[C@@]2(C(=O)O)C[C@H]2c2cccc(N3CCN(C)CC3)c2)cc1` (relative stereo) [Compound 21j, trans-1-(4-methylbenzyl)-2-(3-(4-methylpiperazin-1-yl)phenyl)cyclopropanecarboxylic acid], the Kd was found to be 23.6 ± 4.5 µM at StOASS-B and 0.25 ± 0.06 µM on StOASS-A (setting [1]). In addition, at StOASS-B (setting [2]), the “KD (μM) OASS-B” value was “detrimental effect”. Further, the “KD (μM) OASS-A” value on StOASS-A (setting [2]) was “good activity”. Besides, the MIC in the assay on S. Typhimurium ATCC14028, in the assay with E. coli ATCC 25922 and in the assay with K. pneumoniae ATCC13883 was over 512 µg/mL each time.

In the case of `CCOC(=O)[C@]1(Cc2ccc(C)cc2)C[C@H]1c1cccc(-c2ccccc2)c1` (relative stereo) [Compound 8d, trans-ethyl 2-([1,1′-biphenyl]-3-yl)-1-(4-methylbenzyl)cyclopropanecarboxylate], on StOASS-B (setting [2]), the “KD (μM) OASS-B” value is “No binding”. For the same molecule, at StOASS-A (setting [2]), the “KD (μM) OASS-A” value is “No binding”. The MIC in the assay on S. Typhimurium ATCC14028, in the assay on E. coli ATCC 25922 and with K. pneumoniae ATCC13883 was over 512 µg/mL each time.

Turning to `Cc1ccc(C[C@@]2(C(=O)O)C[C@H]2c2cccc(-c3ccccc3)c2)cc1` (relative stereo) [Compound 9d, trans-2-([1,1′-biphenyl]-3-yl)-1-(4-methylbenzyl)cyclopropanecarboxylic acid], the dissociation constant (Kd) at StOASS-B was 6.8 ± 1.1 µM; on StOASS-A (setting [1]), 2.51 ± 0.61 µM. Moreover, the MIC in the assay with S. Typhimurium ATCC14028, in the assay on E. coli ATCC 25922 and in the assay on K. pneumoniae ATCC13883 was over 512 µg/mL each time.

For `Cc1ccc(C[C@@]2(C(=O)O)C[C@H]2c2cccc(N3CCOCC3)c2)cc1` (relative stereo) [Compound 13g, trans-1-(4-methylbenzyl)-2-(3-morpholinophenyl)cyclopropanecarboxylic acid], the dissociation constant (Kd) on StOASS-B was 3.86 ± 0.29 µM; on StOASS-A (setting [1]) it was 0.1 ± 0.01 µM. Besides, the MIC in the assay with S. Typhimurium ATCC14028, with E. coli ATCC 25922 and in the assay with K. pneumoniae ATCC13883 was over 512 µg/mL in each case.

As for `Cc1ccc(C[C@@]2(C(=O)O)C[C@H]2c2cccc(-c3cccc(F)c3)c2)cc1` (relative stereo) [Compound 9f, trans-2-(3′-fluoro-[1,1′-biphenyl]-3-yl)-1-(4-methylbenzyl)cyclopropanecarboxylic acid], the dissociation constant (Kd) at StOASS-B stood at 1.45 ± 0.31 µM; at StOASS-A (setting [1]), 0.051 ± 0.004 µM. In addition, on StOASS-A (setting [2]), the “KD (μM) OASS-A” value is “low nanomolar range”. The MIC in the assay with S. Typhimurium ATCC14028, with E. coli ATCC 25922 and with K. pneumoniae ATCC13883 was over 512 µg/mL throughout.

Consider `Cc1ccc(C[C@@]2(C(=O)O)C[C@H]2c2cccc(-c3cc(O)cc(F)c3)c2)cc1` (relative stereo) [Compound 9e, trans-2-(3′-fluoro-5′-hydroxy-[1,1′-biphenyl]-3-yl)-1-(4-methylbenzyl)cyclopropanecarboxylic acid], for which the dissociation constant Kd is 0.61 ± 0.08 µM on StOASS-B and 0.035 ± 0.003 µM at StOASS-A (setting [1]). Further, on StOASS-A (setting [2]), the “KD (μM) OASS-A” value was “low nanomolar range”. Further, the MIC in the assay with S. Typhimurium ATCC14028, with E. coli ATCC 25922 and in the assay on K. pneumoniae ATCC13883 was over 512 µg/mL each time.

For the molecule `CCOC(=O)C1(Cc2ccc(C)cc2)CC1c1cccc(-c2cnc(N)nc2)c1` (centres unmarked) [Compound 8a, ethyl 2-(3-(2-aminopyrimidin-5-yl)phenyl)-1-(4-methylbenzyl)cyclopropanecarboxylate], the MIC in the assay on S. Typhimurium ATCC14028, in the assay with E. coli ATCC 25922 and in the assay on K. pneumoniae ATCC13883 was over 512 µg/mL throughout.

Turning to `Cc1ccc(C[C@@]2(C(=O)O)C[C@H]2c2cccc(N3CCNCC3)c2)cc1` (relative stereo) [Compound 21i, trans-1-(4-methylbenzyl)-2-(3-(piperazin-1-yl)phenyl)cyclopropanecarboxylic acid], the “KD (μM) OASS-B” value on StOASS-B (setting [2]) is given as “detrimental effect”. In addition, the dissociation constant (Kd) on StOASS-B (20 °C, 100 mM HEPES, 5% DMSO, pH 7.0, racemic mixture, esters tested up to 100 μM, read-out: KD (μM) OASS-B) was 83.8 ± 16.1 µM; on StOASS-A it was 0.45 ± 0.09 µM. On StOASS-A (setting [2]), the “KD (μM) OASS-A” value is recorded as “good activity”. Moreover, the MIC in the assay on S. Typhimurium ATCC14028, in the assay with E. coli ATCC 25922 and in the assay on K. pneumoniae ATCC13883 was over 512 µg/mL throughout.

Broadly, the Kd is the concentration at which binding is half-saturated.
